The values that follow come from ChEMBL document CHEMBL1201862, “PubChem BioAssay data set” (2004).

SMILES strings stand for the structures.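 In this assay, cells in 96-well plates receive the compound at five concentrations for 48 hours. Endpoints are linearly interpolated between the surrounding concentrations. GI50: concentration for 50% inhibition of growth.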 Active and inactive are the calls of the source. Cut-off read from the data, not from the text of the source: active = GI50 up to about 1.1 µM and inactive = higher. Some results are limits rather than exact numbers.

Among the test systems are SNB-19; U-251; UO-31; HCT-116; SN12C; OVCAR-5; HCC 2998; BT-549; SF-539; NCI/ADR-RES; HOP-92; NCI-H522; UACC-62; CAKI-1; OVCAR-8; NCI-H226; UACC-257; OVCAR-4; HCT-15.
Common to all, as to assay: DTP human tumour cell line panel, 48 h

One may read the GI50 as the concentration at which growth is held to half of that of the control. With `CCCCCCCCP(=O)(O)OP(=O)(O)OCC1OC(n2ccc(N)nc2=O)C(O)C1O` (centres undefined), the GI50 in the assay with SNB-19, in the assay with U-251, in the assay on UO-31, in the assay with HCT-116, with SN12C and in the assay with OVCAR-5 was > 100 µM (inactive) in each case. The GI50 in the assay on HCC 2998, in the assay on BT-549, in the assay with SF-539, in the assay with NCI/ADR-RES, with HOP-92 and in the assay with NCI-H522 was > 100 µM (inactive) throughout. Besides, the GI50 in the assay with UACC-62, in the assay on CAKI-1, in the assay on OVCAR-8, with NCI-H226, in the assay with UACC-257 and in the assay with OVCAR-4 was > 100 µM (inactive) throughout. The GI50 in the assay on HCT-15 is > 100 µM.
On to `COc1cc(C2c3cc4c(cc3OC(NN=C(C)C)C2C)OCO4)cc(OC)c1O` (centres undefined), for which the GI50 with SNB-19 is 85.5 µM (inactive); in the assay on U-251, 29.2 µM (inactive); in the assay on UO-31 it was 46.9 µM (inactive); in the assay with HCT-116, 24.9 µM (inactive); in the assay on SN12C, 8.39 µM (inactive); in the assay on OVCAR-5 it was 64.4 µM (inactive). Besides, the GI50 is 14.4 µM (inactive) in the assay on HCC 2998; 12.2 µM (inactive) with BT-549; 21.2 µM (inactive) with SF-539; 18 µM (inactive) with NCI/ADR-RES; 62.4 µM (inactive) with HOP-92; 3.94 µM (inactive) in the assay on NCI-H522. Also, the GI50 is 19.2 µM (inactive) with UACC-62; 61.5 µM (inactive) in the assay on CAKI-1; 27.5 µM (inactive) in the assay with OVCAR-8; > 100 µM (inactive) in the assay with NCI-H226; 89.3 µM (inactive) with UACC-257; 48.3 µM (inactive) in the assay on OVCAR-4. Besides, growth with HCT-15 was halved (GI50) at 7.43 µM.
As for `Oc1ccc2ccccc2c1/C=C/c1ccc2c(Br)cc(Br)c(O)c2n1`, the GI50 in the assay on SNB-19 is 6.73 µM (inactive); in the assay with U-251 it was 4.54 µM (inactive); in the assay with UO-31, 4.05 µM (inactive); with HCT-116, 2.96 µM (inactive); in the assay on SN12C, 5.04 µM (inactive); with OVCAR-5, 7.76 µM (inactive). Also, the GI50 in the assay on HCC 2998 is 6.97 µM (inactive); in the assay with BT-549 it was 12.3 µM (inactive); in the assay on SF-539, 2.53 µM (inactive); in the assay with NCI/ADR-RES it was 2.41 µM (inactive); with HOP-92, 11.5 µM (inactive); in the assay with NCI-H522 it was 3.56 µM (inactive). Besides, the GI50 in the assay on UACC-62 was 6.01 µM (inactive); in the assay on CAKI-1, 11 µM (inactive); with OVCAR-8, 3.57 µM (inactive); with NCI-H226, 5.02 µM (inactive); in the assay with UACC-257, 8.49 µM (inactive); in the assay on OVCAR-4, 9.82 µM (inactive). Also, the GI50 in the assay with HCT-15 is 0.787 µM.
For the molecule `Cc1cccc(C)c1NC(=O)C(=O)CC(=O)c1sc(Nc2c(C)cccc2C)nc1C`, the GI50 is > 100 µM (inactive) with SNB-19; > 100 µM (inactive) with U-251; 50.8 µM (inactive) with UO-31; > 100 µM (inactive) in the assay with HCT-116; > 100 µM (inactive) in the assay on SN12C; > 100 µM (inactive) in the assay on OVCAR-5. In addition, the GI50 in the assay on HCC 2998, with BT-549, with SF-539, with NCI/ADR-RES, with HOP-92 and with NCI-H522 was > 100 µM (inactive) each time. In addition, the GI50 in the assay with UACC-62, with CAKI-1, with OVCAR-8, with NCI-H226, with UACC-257 and in the assay on OVCAR-4 was > 100 µM (inactive) throughout. For the same molecule, in the assay with HCT-15, the GI50 is > 100 µM.
With `COc1cc(C=C2N=C(c3ccccc3)N(n3c(-c4ccccc4)nc4ccccc4c3=O)C2=O)cc(OC)c1OC`, the GI50 with SNB-19 was 24.7 µM (inactive); with U-251, > 10 µM (inactive); in the assay with UO-31 it was 31 µM (inactive); in the assay on HCT-116 it was 22.2 µM (inactive); with SN12C it was 16.9 µM (inactive); in the assay on OVCAR-5, 38.9 µM (inactive). For the same molecule, the GI50 was 30.7 µM (inactive) in the assay on HCC 2998; 16.4 µM (inactive) in the assay on BT-549; 18.7 µM (inactive) with SF-539; 38.9 µM (inactive) in the assay with NCI/ADR-RES; 14.5 µM (inactive) in the assay on HOP-92; 20.1 µM (inactive) in the assay on NCI-H522. In addition, the GI50 was 22.3 µM (inactive) with UACC-62; 48.3 µM (inactive) in the assay on CAKI-1; 21.1 µM (inactive) in the assay on OVCAR-8; 25.6 µM (inactive) in the assay with NCI-H226; 20.1 µM (inactive) in the assay with UACC-257; 27.4 µM (inactive) in the assay with OVCAR-4. In the assay on HCT-15, this molecule showed a GI50 of 31.5 µM.
As for `CN(C)C(=S)N/N=C\C(=N/NC(=S)N(C)C)c1ccccc1`, the GI50 in the assay on SNB-19 is 17 µM (inactive); in the assay on U-251, 3.96 µM (inactive); in the assay on UO-31, 3.69 µM (inactive); in the assay on HCT-116, 3.52 µM (inactive); in the assay with SN12C it was 6.24 µM (inactive); in the assay with OVCAR-5, > 30.9 µM (inactive). Also, the GI50 in the assay on HCC 2998 was 7.53 µM (inactive); in the assay on BT-549, > 22.2 µM (inactive); in the assay with SF-539, 10.1 µM (inactive); in the assay with NCI/ADR-RES, 2.98 µM (inactive); with HOP-92, 3.91 µM (inactive); in the assay on NCI-H522, 3.15 µM (inactive). Further, the GI50 in the assay on UACC-62 is 8.41 µM (inactive); with CAKI-1, 7.24 µM (inactive); in the assay on OVCAR-8, 4.82 µM (inactive); in the assay on NCI-H226, 4.61 µM (inactive); with UACC-257, > 23.4 µM (inactive); in the assay on OVCAR-4 it was 5.74 µM (inactive). This molecule also showed a GI50 with HCT-15 of 2.71 µM.
Consider `COC(=O)C1=NN2c3ccccc3CN([C@@H](C)c3ccccc3)C(=O)[C@@H]2C1`, for which the GI50 with SNB-19 was 39.6 µM (inactive); with U-251, 40.7 µM (inactive); in the assay on UO-31 it was 17.5 µM (inactive); in the assay on HCT-116, 32.4 µM (inactive); with SN12C, 56.1 µM (inactive); with OVCAR-5, 52.1 µM (inactive). In addition, the GI50 was 48.2 µM (inactive) in the assay on HCC 2998; 24.6 µM (inactive) with BT-549; 50.7 µM (inactive) with SF-539; 21 µM (inactive) in the assay on NCI/ADR-RES; 34.4 µM (inactive) with HOP-92; 21.7 µM (inactive) with NCI-H522. For the same molecule, the GI50 in the assay on UACC-62 was 19 µM (inactive); in the assay with CAKI-1 it was 23.2 µM (inactive); in the assay with OVCAR-8, 34.6 µM (inactive); with NCI-H226 it was 54.1 µM (inactive); with UACC-257, 30.5 µM (inactive); with OVCAR-4, 13.3 µM (inactive). For the same molecule, growth in the assay with HCT-15 was halved (GI50) at 31.7 µM.
`O=C(c1cccs1)N(Cc1cccnc1)C(=S)N(Cc1cccnc1)C(=O)c1cccs1`: the GI50 with SNB-19 was 35.5 µM (inactive); in the assay on U-251 it was 32.7 µM (inactive); in the assay on UO-31, > 100 µM (inactive); in the assay with HCT-116 it was 45.8 µM (inactive); in the assay on SN12C, 32.6 µM (inactive); in the assay with OVCAR-5 it was > 100 µM (inactive). Further, the GI50 in the assay on HCC 2998 is > 100 µM (inactive); in the assay with BT-549 it was > 100 µM (inactive); in the assay with SF-539, 29.9 µM (inactive); in the assay on NCI/ADR-RES, > 100 µM (inactive); in the assay with HOP-92, > 100 µM (inactive); in the assay on NCI-H522, 36.5 µM (inactive). Besides, the GI50 with UACC-62 is 60.7 µM (inactive); in the assay with CAKI-1, > 100 µM (inactive); in the assay with OVCAR-8, 50.4 µM (inactive); in the assay with NCI-H226, > 100 µM (inactive); in the assay on UACC-257, > 100 µM (inactive); in the assay on OVCAR-4 it was > 100 µM (inactive). Also, the GI50 in the assay with HCT-15 is > 100 µM.
`O=C1c2ccccc2C(=O)c2c(NCCNC(=O)C3CCCN3)ccc(NCCNC(=O)C3CCCN3)c21` (centres undefined): the GI50 was 44.1 µM (inactive) with SNB-19; 37.2 µM (inactive) in the assay on U-251; 31.5 µM (inactive) in the assay with UO-31; 2.65 µM (inactive) with HCT-116; 46 µM (inactive) in the assay with SN12C; 51.4 µM (inactive) in the assay with OVCAR-5. Moreover, the GI50 in the assay with HCC 2998 is 35.9 µM (inactive); in the assay on BT-549, 29.9 µM (inactive); with SF-539 it was 44.6 µM (inactive); in the assay on NCI/ADR-RES, > 100 µM (inactive); in the assay on HOP-92 it was 41 µM (inactive); in the assay on NCI-H522, 19.9 µM (inactive). The GI50 with UACC-62 is 38.7 µM (inactive); with CAKI-1, > 100 µM (inactive); with OVCAR-8, 33.9 µM (inactive); in the assay with NCI-H226, > 100 µM (inactive); with UACC-257, > 100 µM (inactive); with OVCAR-4 it was > 100 µM (inactive). Moreover, the GI50 in the assay with HCT-15 is > 100 µM.
Regarding `CC(=O)C1=C(O)/C(=C\c2ccco2)OC1=O`, the GI50 in the assay with SNB-19, in the assay on U-251, in the assay with UO-31, in the assay on HCT-116, in the assay on SN12C and in the assay on OVCAR-5 was > 10 µM (inactive) each time. The GI50 in the assay with HCC 2998, in the assay on BT-549, in the assay with SF-539, with NCI/ADR-RES, in the assay on HOP-92 and with NCI-H522 was > 10 µM (inactive) in each case. Also, the GI50 in the assay on UACC-62, in the assay with CAKI-1, in the assay with OVCAR-8, with NCI-H226, in the assay on UACC-257 and in the assay with OVCAR-4 was > 10 µM (inactive) in each case. The GI50 in the assay on HCT-15 is > 10 µM.
`CC1(C)CC(O)C2=C(O1)C(=O)c1ncccc1C2=O` (centres undefined): the GI50 is 4.65 µM (inactive) in the assay with SNB-19; 1.75 µM (inactive) with U-251; 1.85 µM (inactive) with UO-31; 2.28 µM (inactive) with HCT-116; 1.94 µM (inactive) in the assay on SN12C; 1.89 µM (inactive) in the assay with OVCAR-5. Moreover, the GI50 in the assay with HCC 2998 is 5.41 µM (inactive); in the assay on BT-549, 1.75 µM (inactive); in the assay on SF-539, 1.84 µM (inactive); with NCI/ADR-RES, 1.5 µM (inactive); with HOP-92 it was 2.28 µM (inactive); in the assay on NCI-H522, 1.29 µM (inactive). The GI50 in the assay on UACC-62 is 1.72 µM (inactive); with CAKI-1, 2.24 µM (inactive); in the assay on OVCAR-8 it was 2.6 µM (inactive); with NCI-H226, 1.87 µM (inactive); in the assay on UACC-257 it was 1.71 µM (inactive); in the assay with OVCAR-4, 1.73 µM (inactive). In the assay on HCT-15, this molecule gave a GI50 of 4.02 µM.
